The target in data set [1] is T1, JAK3: Recombinant human kinase domain (h-jak3-sf21-c) (Homo sapiens, UniProt P52333).
T1 construct: JAK3: Recombinant human kinase domain from Millipore (Cat # 14-629) or prepared; purchased Millipore 14-629
Description: Determination of IC50 of Janus Kinase (JAK) inhibition, JAK3 (radioactive end-point assay with 33P-ATP). It counts as biochemical. Particulars: ATP 1.5 uM, peptide 50 uM, 20 minutes, room temperature. The source says:
Determination of IC50 of Janus Kinase (JAK) Inhibition:
Enzymes and peptide substrate used are described below: • JAK1: Recombinant human kinase domain from Invitrogen (Cat # PV4774) • JAK3: Recombinant human kinase domain from Millipore (Cat # 14-629) or prepared. • JAK2: Recombinant human kinase domain from Millipore (Cat # 14-640) • Substrate: N-terminally biotinylated 14-mer peptide derived from activation loop of JAK1 with sequence of the peptide substrate: Biotin-[…]
Assay conditions used are described below: • Assay Buffer: JAK Kinase Buffer: 50 mM Hepes [pH 7.2], 10 mM MgCl2, 1 mM DTT, 1 mg/mL BSA. The assay is carried out in this buffer. • Assay Format The kinase activity of all three JAK kinases is measured using a radioactive, end-point assay and with trace amounts of^33P-ATP. The assays are carried out in 96-well polypropylene plates. Experimental Method:
All concentrations are final in the reaction mixture and all incubations are carried at room temperature. Assay steps are described below: • 1) Compounds are serially diluted in 100% DMSO typically at a 10× starting concentration of 1 mM. Final concentration of DMSO in the reaction is 10%. • 2) Compounds are preincubated with enzyme (0.5 nM JAK3 (commercially available), 0.2 nM JAK3 (prepared), 1 nM JAK2, 5 nM JAK1) for 10 minutes. • 3) Reactions are initiated by the addition of a cocktail of the two substrates (ATP and peptide premixed in the JAK Kinase Buffer). In the JAK2/JAK3 assays, ATP and the peptide are used at concentrations of 1.5 uM and 50 uM, respectively. JAK1 assay is carried out at an ATP concentration of 10 uM and a peptide concentration of 50 uM. • 4) The duration of the assay for JAK2 and JAK3 is 20 minutes. JAK1 assay is carried out for 40 minutes. With all three enzymes, reactions are terminated by the addition of 0.5M EDTA to a final concentration of 100 mM. • 5) 25 ul of terminated reactions are transferred to 150 ul of a 7.5% (v/v) slurry of streptavidin-coated sepharose beads in MgCl2- and CaCl2-free 1× Phosphate Buffered Saline containing 50 mM of EDTA in 96-well, 1.2 um MultiScreen-BV filter plates. • 6) After a 30-minute incubation, the beads are washed under vacuum with the following buffers: • a. 3 to 4 washes with 200 ul of 2M NaCl. • b. 3 to 4 washes with 200 ul of 2M NaCl plus 1% (v/v) phosphoric acid. • c. 1 wash with water. • 7) Washed plates are dried in a 60° C. oven for between 1 to 2 hours. • 8) 70 ul of Microscint 20 scintillation fluid is added to each well of filter plates and after at least 30 minutes of incubation, radioactive counts are measured in a Perkinelmer microplate scintillation counter.

Molecules are shown by their SMILES. Counter-ions that a name gives are not always drawn.

T1 sequence (P52333 822-1111 limits assumed): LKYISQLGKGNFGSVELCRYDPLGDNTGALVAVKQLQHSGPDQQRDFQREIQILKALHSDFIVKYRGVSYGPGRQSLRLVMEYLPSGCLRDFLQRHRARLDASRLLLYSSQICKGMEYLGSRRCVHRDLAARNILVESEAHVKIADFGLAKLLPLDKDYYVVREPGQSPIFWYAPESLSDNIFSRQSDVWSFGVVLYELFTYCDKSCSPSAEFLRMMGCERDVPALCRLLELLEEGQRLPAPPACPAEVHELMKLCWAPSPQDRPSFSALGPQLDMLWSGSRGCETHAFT

With `CS(=O)(=O)N1CCC(NC(=O)c2c[nH]c3ncc(C4CC4)nc23)CC1` [Compound I-21, 2-Cyclopropyl-5H-pyrrolo[2,3-b]pyrazine-7-carboxylic acid (1-methanesulfonyl-piperidin-4-yl)-amide], the melting point lay within 278 to 280 °C. Further, in data set [1], the IC50 amounted to 96.2 nM.

`C[C@]1(O)CCC[C@@H]1NC(=O)c1c[nH]c2ncc(C3CC3)nc12` (relative stereo) [Compound I-11, 2-Cyclopropyl-5H-pyrrolo[2,3-b]pyrazine-7-carboxylic acid ((trans)-2-hydroxy-2-methyl-cyclopentyl)-amide] returned a melting point of 260 to 262 °C. Besides, the 50% inhibitory concentration (IC50) in data set [1] stood at 12.9 nM.

`CS(=O)(=O)N1CCCC(NC(=O)c2c[nH]c3ncc(C4CC4)nc23)C1` (centres unmarked) [Compound I-24, 2-Cyclopropyl-5H-pyrrolo[2,3-b]pyrazine-7-carboxylic acid (1-methanesulfonyl-piperidin-3-yl)-amide] gave a melting point of 284 to 287 °C. Also, in data set [1], the concentration for half-maximal inhibition (IC50) was 8 nM.

With `O=C(NC1CCCOC1)c1c[nH]c2ncc(C3CC3)nc12` (centres unmarked) [Compound I-6, 2-Cyclopropyl-5H-pyrrolo[2,3-b]pyrazine-7-carboxylic acid (tetrahydro-pyran-3-yl)-amide], the melting point is above 300 °C. Further, in data set [1], the IC50 was 15.6 nM. The like results for `N#C[C@@H]1CCC[C@@H]1NC(=O)c1c[nH]c2ncc(C3CC3)nc12` (relative stereo) [Compound I-25, 2-Cyclopropyl-5H-pyrrolo[2,3-b]pyrazine-7-carboxylic acid ((cis)-2-cyano-cyclopentyl)-amide] were, in that order, above 300 °C and 10 nM. Regarding `CC(C)(O)C1(NC(=O)c2c[nH]c3ncc(C4CC4)nc23)CCCCC1` [Compound I-14, 2-Cyclopropyl-5H-pyrrolo[2,3-b]pyrazine-7-carboxylic acid [1-(1-hydroxy-1-methyl-ethyl)-cyclohexyl]-amide], the melting point lay within 228 to 230 °C. Further, in data set [1], the half-inhibitory concentration (IC50) worked out at 38.9 nM. On to `CC1(C)CCN(S(C)(=O)=O)CC1NC(=O)c1c[nH]c2ncc(C3CC3)nc12` (centres unmarked) [Compound I-35, 2-Cyclopropyl-5H-pyrrolo[2,3-b]pyrazine-7-carboxylic acid (1-methanesulfonyl-4,4-dimethyl-piperidin-3-yl)-amide], for which the IC50 in data set [1] is 2.1 nM.

With `CS(=O)(=O)N1CCC[C@@H](NC(=O)c2c[nH]c3ncc(C4CC4)nc23)C1` [Compound I-31, 2-Cyclopropyl-5H-pyrrolo[2,3-b]pyrazine-7-carboxylic acid ((R)-1-methanesulfonyl-piperidin-3-yl)-amide], the melting point is 277 to 280 °C. The IC50 in data set [1] was 3.7 nM.

For `CCCS(=O)(=O)N1CCCC(NC(=O)c2c[nH]c3ncc(C4CC4)nc23)C1` (centres unmarked) [Compound I-28, 2-Cyclopropyl-5H-pyrrolo[2,3-b]pyrazine-7-carboxylic acid [1-(propane-1-sulfonyl)-piperidin-3-yl]-amide], the melting point fell in the range of 228 to 230 °C. For the same molecule, the IC50 in data set [1] was 22 nM.

Consider `CC1(C)COCC1NC(=O)c1c[nH]c2ncc(C3CC3)nc12` (centres unmarked) [Compound I-16, 2-Cyclopropyl-5H-pyrrolo[2,3-b]pyrazine-7-carboxylic acid (4,4-dimethyl-tetrahydro-furan-3-yl)-amide], for which the melting point is above 300 °C. Also, the IC50 in data set [1] amounted to 9.8 nM. Molecule `CCS(=O)(=O)N1CCCC(NC(=O)c2c[nH]c3ncc(C4CC4)nc23)C1` (centres unmarked) [Compound I-27, 2-Cyclopropyl-5H-pyrrolo[2,3-b]pyrazine-7-carboxylic acid (1-ethanesulfonyl-piperidin-3-yl)-amide] came in with a melting point of 266 to 269 °C. Besides, the concentration for half-maximal inhibition (IC50) in data set [1] came to 17.3 nM.

Molecule `CC1(C)OCCC1NC(=O)c1c[nH]c2ncc(C3CC3)nc12` (centres unmarked) [Compound I-4, 2-Cyclopropyl-5H-pyrrolo[2,3-b]pyrazine-7-carboxylic acid (2,2-dimethyl-tetrahydro-furan-3-yl)-amide] displayed a melting point above 300 °C. Besides, the IC50 in data set [1] is 5.3 nM. On to `CC(=O)N[C@@H]1CCc2ccc(Oc3cnc4[nH]cc(C(=O)NC5CCS(=O)(=O)CC5)c4n3)cc21` [Compound I-41, 2-((R)-3-Acetylamino-indan-5-yloxy)-5H-pyrrolo[2,3-b]pyrazine-7-carboxylic acid (1,1-dioxo-hexahydro-1λ6-thiopyran-4-yl)-amide], for which the concentration for half-maximal inhibition (IC50) in data set [1] amounted to 2160 nM. For the molecule `CC(=O)N1CCC(NC(=O)c2c[nH]c3ncc(C4CC4)nc23)CC1` [Compound I-36, 2-Cyclopropyl-5H-pyrrolo[2,3-b]pyrazine-7-carboxylic acid (1-acetyl-piperidin-4-yl)-amide], the melting point lay within 273 to 275 °C. Besides, in data set [1], the IC50 turned out to be 167 nM. `CC(=O)N[C@@H]1CCc2ccc(Oc3cnc4[nH]cc(C(=O)NC5CCCCC5)c4n3)cc21` [Compound I-40, 2-((R)-3-Acetylamino-indan-5-yloxy)-5H-pyrrolo[2,3-b]pyrazine-7-carboxylic acid cyclohexylamide]: the IC50 in data set [1] came to 50.2 nM. In the case of `CC(=O)N1CCC(NC(=O)c2c[nH]c3ncc(C4CC4)nc23)C1` (centres unmarked) [Compound I-37, 2-Cyclopropyl-5H-pyrrolo[2,3-b]pyrazine-7-carboxylic acid (1-acetyl-pyrrolidin-3-yl)-amide], the melting point lay within 242 to 245 °C. Also, the IC50 in data set [1] turned out to be 120 nM. As for `CC(C)(O)C1(NC(=O)c2c[nH]c3ncc(C4CC4)nc23)CCCC1` [Compound I-12, 2-Cyclopropyl-5H-pyrrolo[2,3-b]pyrazine-7-carboxylic acid [1-(1-hydroxy-1-methyl-ethyl)-cyclopentyl]-amide], the melting point lay in the range of 232 to 234 °C. Further, the IC50 in data set [1] turned out to be 49.7 nM. For the molecule `CCn1cc(-c2cnc3[nH]cc(C(=O)NC4CCCCC4(C)C)c3n2)cn1` (centres unmarked) [Compound I-39, 2-(1-Ethyl-1H-pyrazol-4-yl)-5H-pyrrolo[2,3-b]pyrazine-7-carboxylic acid (2,2-dimethyl-cyclohexyl)-amide], the IC50 in data set [1] is 0.3 nM. Take `CC(C)(O)C1(NC(=O)c2c[nH]c3ncc(C4CC4)nc23)CCC1` [Compound I-13, 2-Cyclopropyl-5H-pyrrolo[2,3-b]pyrazine-7-carboxylic acid [1-(1-hydroxy-1-methyl-ethyl)-cyclobutyl]-amide]: the melting point lay within 264 to 266 °C. In addition, the half-inhibitory concentration (IC50) in data set [1] was found to be 42.7 nM. Molecule `N#Cc1cccc(NC(=O)c2c[nH]c3ncc(C4CC4)nc23)c1` [Compound I-5, 2-Cyclopropyl-5H-pyrrolo[2,3-b]pyrazine-7-carboxylic acid (3-cyano-phenyl)-amide] returned a melting point of 272 to 274 °C. Further, the IC50 in data set [1] came out at 735 nM. Molecule `O=C(NC1(C(=O)C2CC2)CCCC1)c1c[nH]c2ncc(C3CC3)nc12` [Compound I-19, 2-Cyclopropyl-5H-pyrrolo[2,3-b]pyrazine-7-carboxylic acid (1-cyclopropanecarbonyl-cyclopentyl)-amide] came in with a melting point of 296 to 299 °C. Further, in data set [1], the IC50 was 1040 nM. Regarding `O=C(N[C@H]1CCOC[C@@H]1O)c1c[nH]c2ncc(C3CC3)nc12` [Compound I-15, 2-Cyclopropyl-5H-pyrrolo[2,3-b]pyrazine-7-carboxylic acid ((3R,4S)-3-hydroxy-tetrahydro-pyran-4-yl)-amide], the 50% inhibitory concentration (IC50) in data set [1] is 423 nM.

Regarding `CC(C)(O)C1(NC(=O)c2c[nH]c3ncc(C4CC4)nc23)CCNC1` (centres unmarked) [Compound I-17, 2-Cyclopropyl-5H-pyrrolo[2,3-b]pyrazine-7-carboxylic acid [3-(1-hydroxy-1-methyl-ethyl)-pyrrolidin-3-yl]-amide], the IC50 in data set [1] came out at 10000 nM. The molecule `CC(C)(O)C1(NC(=O)c2c[nH]c3ncc(C4CC4)nc23)CCNC1` (centres unmarked) (as salt: hydrochloride) [Compound I-17, 2-Cyclopropyl-5H-pyrrolo[2,3-b]pyrazine-7-carboxylic acid [3-(1-hydroxy-1-methyl-ethyl)-pyrrolidin-3-yl]-amide] had a melting point of 200 to 203 °C.

The IC50 is the point on the concentration scale where inhibition reaches its midpoint. As usually defined, the melting point is the temperature of the solid-liquid transition.

The values above are taken from patent US8329699B2, “Pyrrolopyrazine kinase inhibitors” (Hoffmann-La Roche Inc., priority 2010, dated 2012).
